Test results reported in ChEMBL document CHEMBL4052722, “Virtual screening, synthesis and biological evaluation of DNA intercalating antiviral agents” (Bioorg Med Chem Lett, 2017).
pIC50: −log10 of the molar value.

Key:
[1] = test system: Vaccinia virus; experiment: Antiviral activity against Vaccinia virus LIVP harboring GFP infected in African green monkey CV1 cells assessed as GFP expression at 10 uM preincubated for 4 hrs with cells followed by viral infection measured after 24 hrs by flow cytometric analysis relative to control; type: functional, Orthopoxvirus vaccinia
[2] = test system: Vaccinia virus; experiment: (§1) Antiviral activity against Vaccinia virus LIVP harboring GFP infected in African green monkey CV1 cells assessed as virus titer at 1 uM preincubated with cells for 4 hrs followed by viral infection measured after 48 hrs by gentian violet staining-based microscopic analysis (reference value: 3.3 +/- 0.1 log10PFU/ml); type: functional, Orthopoxvirus vaccinia
[3] = test system: Vaccinia virus; experiment: as §1, with “at 10” for “at 1”; type: functional, Orthopoxvirus vaccinia
[4] = test system: Vaccinia virus; experiment: as §1, with “at 30” for “at 1”; type: functional, Orthopoxvirus vaccinia
[5] = test system: Vaccinia virus; experiment: Antiviral activity against Vaccinia virus LIVP harboring GFP infected in African green monkey CV1 cells assessed as virus titer preincubated with cells for 4 hrs followed by viral infection measured after 48 hrs by gentian violet staining-based microscopic analysis; type: functional; details: Orthopoxvirus vaccinia, CV-1
[6] = test system: Vaccinia virus; experiment: Antiviral activity against Vaccinia virus LIVP harboring GFP infected in African green monkey CV1 cells assessed as inhibition of GFP expression at 30 to 50 uM preincubated for 4 hrs with cells followed by viral infection measured after 24 hrs by flow cytometric analysis relative to control; type: functional, Orthopoxvirus vaccinia
[7] = test system: Vaccinia virus; experiment: as §1, with “at 5” for “at 1”; type: functional, Orthopoxvirus vaccinia
[8] = test system: Vaccinia virus; experiment: as §1, with “at 50” for “at 1”; type: functional, Orthopoxvirus vaccinia

Compound	Activity [1] [%]	further results
CN1CCN(CCn2c3ccccc3c3nc4ccccc4nc32)CC1	91	–
CN(C)CCn1c2ccccc2c2nc3ccccc3nc21	67	–
CCCCN(C)CCn1c2ccccc2c2nc3ccccc3nc21	77	–
O=C(CN1CCCCCC1)NN1C(=O)c2cccc3cccc(c23)C1=O	111	–
CCN(CC)CCNC(=O)Cn1c2ccccc2c2nc3ccccc3nc21	67	–
O=C(Cn1c2ccccc2c2nc3ccccc3nc21)NCCN1CCOCC1	125	–
CN(C)CCCNC(=O)CCCn1c2ccccc2c2nc3ccccc3nc21	111	–
Cc1ccc2c(c1)c1nc3ccccc3nc1n2CCN1CCN(C)CC1	111	–
COC(=O)CN(C)CCCN1C(=O)c2cccc3cccc(c23)C1=O	83	–
CCCCN(CCO)CCN1C(=O)c2cccc3cccc(c23)C1=O	83	–
CN1CCN(CCN2C(=O)c3cccc4cccc(c34)C2=O)CC1	77	–
O=C(CCCn1c2ccccc2c2nc3ccccc3nc21)NCCN1CCCCC1	100	–
CN1CCN(CC(=O)NN2C(=O)c3cccc4cccc(c34)C2=O)CC1	48	–
CN(C)CCCNCCn1c2ccccc2c2nc3ccccc3nc21	45	Activity [2]: 3.5 log10PFU; Activity [3]: 3.3 log10PFU; Activity [4]: 2.7 log10PFU; pIC50 [5]: 4.66; fold change (FC) [6]: 8 - 10
CCN(CC)CCn1c2ccc(OC)cc2c2nc3ccccc3nc21	91	–
c1ccc2nc3c(nc2c1)c1ccccc1n3CCNCCCN1CCOCC1	48	Activity [2]: 3.6 log10PFU; Activity [3]: 3.3 log10PFU; Activity [4]: 2.6 log10PFU; pIC50 [5]: 4.72; fold change (FC) [6]: 8 - 10
CN(C)CCCOC(=O)Cn1c2ccccc2c2nc3ccccc3nc21	83	–
O=C(CN1CCCC1)NN1C(=O)c2cccc3cccc(c23)C1=O	111	–
CC(O)N(C)CCn1c2ccccc2c2nc3ccccc3nc21 (centres undefined)	91	–
O=C(Cn1c2ccccc2c2nc3ccccc3nc21)OCCN1CCCCC1	71	–

Compound	Activity [1] [%]	further results
CN(C)CCOC(=O)CCCn1c2ccccc2c2nc3ccccc3nc21	125	–
CCN(CC)CCCNC(=O)Cn1c2ccccc2c2nc3ccccc3nc21	83	–
CCN(CC)CCNCCn1c2ccccc2c2nc3ccccc3nc21	91	–
CCN(CC)CCCNCCn1c2ccccc2c2nc3ccccc3nc21	28	Activity [2]: 2.8 log10PFU; Activity [3]: 2.6 log10PFU; Activity [7]: 2.8 log10PFU; pIC50 [5]: > 6.00
O=C(CCCn1c2ccccc2c2nc3ccccc3nc21)NCCCN1CCOCC1	111	–
CN(CCO)CCN1C(=O)c2cccc3cccc(c23)C1=O	83	–
CCN(CCO)CCN1C(=O)c2cccc3cccc(c23)C1=O	71	–
CN(C)CCNC(=O)Cn1c2ccccc2c2nc3ccccc3nc21	59	–
CN(C)CCNC(=O)CCCn1c2ccccc2c2nc3ccccc3nc21	100	–
CC1CCN(CC(=O)NN2C(=O)c3cccc4cccc(c34)C2=O)CC1	125	–
COc1ccc2c(c1)c1nc3ccccc3nc1n2CCN1CCCCC1	23	Activity [2]: 3.1 log10PFU; Activity [3]: 2.8 log10PFU; Activity [8]: 2.4 log10PFU; pIC50 [5]: 5.30; fold change (FC) [6]: 8 - 10
CN(C)CCCNC(=O)Cn1c2ccccc2c2nc3ccccc3nc21	42	Activity [2]: 3.4 log10PFU; Activity [3]: 2.8 log10PFU; Activity [8]: 2.5 log10PFU; pIC50 [5]: 5.00; fold change (FC) [6]: 8 - 10
CN(C)CCNCCn1c2ccccc2c2nc3ccccc3nc21	77	–
CCN(CC)CCNC(=O)CCCn1c2ccccc2c2nc3ccccc3nc21	91	–
CCN(CC)CCCC(C)N1C(=O)c2cccc3cccc(c23)C1=O (centres undefined)	111	–
O=C(CCCn1c2ccccc2c2nc3ccccc3nc21)OCCN1CCOCC1	111	–
O=C(Cn1c2ccccc2c2nc3ccccc3nc21)NCCCN1CCOCC1	83	–
c1ccc2nc3c(nc2c1)c1ccccc1n3CCNCCN1CCCCC1	71	–
O=C(CCCn1c2ccccc2c2nc3ccccc3nc21)NCCN1CCOCC1	111	–
COC(=O)CN1CCN(CCN2C(=O)c3cccc4cccc(c34)C2=O)CC1	77	–
